# Source: patent US20230189803A1, “COMPOSITIONS CONTAINING ORGANIC ACIDS AND THEIR ESTERS TO PREVENT MOLD CONTAMINATION IN ANIMAL FEED” (KEMIN INDUSTRIES, INC., priority 2021, published 2023)
# Key:
# Type in all cases: cell-based
# mold [1] = experiment: CO2 study in barley samples, propylene glycol esters compared with other esters (Example 10); details: barley 19.8% moisture, 0.02-0.08 mol/kg, molar basis
# Method: Materials. The moisture level of barley samples was increased till 20.2%. [table] Statistical analysis. To determine significant differences in CO2-values (p<0.05), repeated measures analysis was performed by method of General Linear Models procedure (StatGraphics Centurion XV). The repeated measures statistical treatment of results was used because it can be used when change over time is assessed. Where significant differences resulted, Multiple Range Test was used to separate the means.
# mold [2] = experiment: CO2 study in barley samples, dose response of propionic acid esters as mold inhibitors (Example 9); details: barley 20.2% moisture
# Method: Materials. Barley was procured from a local supplier.
# Efficacy. The moisture level of barley was determined before the start of the experiments4. The moisture level of the barley samples was adjusted to 20.2+/−0.5% by the addition of tap water. The barley samples, with the adjusted moisture content, were afterwards treated with the different extracted esters at different dose levels (0.02 mol/kg, 0.04 mol/kg, 0.06 mol/kg and 0.08 mol/kg). The untreated barley samples and samples treated with propionic acid (0.02 mol/kg-0.08 mol/kg) were included as controls. All barley samples were collected in closed plastic containers for evaluation of the CO2-production. The samples were stored at 25° C. The CO2-production in the headspace was monitored regularly during a 3-month period using the Edinburgh sensor Guardian NG. Three replicates were analyzed for each treatment.
# Statistical analysis. To determine significant differences in CO2-values values (p<0.05), repeated measures analysis was performed by method of General Linear Models procedure (StatGraphics Centurion XV). The repeated measures statistical treatment of results was used because it can be used when change over time is assessed. Where significant differences resulted, Multiple Range Test was used to separate the means.
# mold [3] = experiment: CO2 study in soybean meal samples (Example 13); details: 0.06 mol/kg, after one month of storage
# Method: Efficacy on soybean meal. FIGS. 18 and 19 show the CO2 production (%) of the untreated soybean meal samples compared to the soybean meal samples treated with ester 1 and propionic acid at a dosage of 0.06 and 0.08 mol/kg, respectively. In the untreated samples, a fast increase in CO2 level was measured within the first days and the CO2 value stayed around 20% during the whole course of the trial. […] Samples treated with ester 1 and propionic acid at a dosage of 0.08 mol/kg were still completely stable after 84 days.
SMILES,"efficacy in controlling mold growth (CO2 evolution), comparative (mold [1])",CO2 increase compared to the esters (mold [2]; 0.06 mol/kg),storage time for which samples stay stable / after which CO2 starts increasing (mold [2]; 0.08 mol/kg),CO2 levels during storage (mold [3])
CC(=O)O [acetic acid],less effective in controlling mold growth compared to propionic acid,,,
CCC(=O)O [propionic acid],,CO2 increased faster,40 days,CO2 levels started to increase
